The values that follow come from patent US9248119B2, “Modified release dosage forms of xanthine oxidoreductase inhibitor or xanthine oxidase inhibitors” (Takeda Pharmaceuticals U.S.A., Inc., priority 2010, dated 2016).

What is called Cmax is the highest concentration seen after dosing.

Like-named read-outs stand apart in the source and are kept apart here. Bounds are passed on as bounds.

Data set [1] is described as follows: Absorption of febuxostat from various regions of the gastro-intestinal tract in rats. In kind it is in vivo, rat. An excerpt:
The pharmacokinetic data obtained in the clinical trial referenced above was subsequently used to develop estimated plasma profiles for various febuxostat formulations, including extended release matrix tablets, two-pulse febuxostat formulations, and three-pulse febuxostat formulations. The estimated extended release formulation data was based on a matrix formulation incorporating one or more polymers, and the estimated two-pulse and three-pulse formulation data was based on a formulation incorporating two or more types of beads with differing release profiles. This information and methodology is discussed in Example 2. Additionally, as part of the development process for an extended release febuxostat formulation, various sites of absorption were investigated to determine the optimal physiologic sites of drug absorption for an extended release febuxostat formulation. In early pre-clinical studies, absorption of febuxostat from various regions of the gastro-intestinal tract was studied in rats. […] To guide development of a dosage form that provided the desired plasma concentration-time profile, a site of absorption study was conducted in humans.

The next data set in a line: clinical. The note with it: human, plasma, po.
Data set [2] can be described thus: Phase 1 single-dose 5-way crossover study of four extended release and one immediate release febuxostat formulation. It is filed as in vivo, human. The note with it: all subjects, all formulations. An excerpt: This examples describes the results of a phase 1, single-center, open-label, randomized, 5-way crossover study. Thirty-five adult male and female subjects aged 18 to 55 years, inclusive, in good health, were selected to participate in this study.

Another data set concerns uric acid. In words: Pharmacodynamics in Phase 1 dose escalation study: uric acid levels. In kind it is in vivo, human. As for the experimental part: Samples were analyzed by high performance liquid chromatography.
The conditions of data set [3]: cited from earlier work; for fu (free fraction in plasma): in %.
Setting [4] is: normal patients, 14C, nominal 1 μg/mL.
[5] abbreviates: patients with severe renal impairment.

Consider `Cc1nc(-c2ccc(OCC(C)C)c(C#N)c2)sc1C(=O)O` [Febuxostat, 2-[3-cyano-4-(2-methylpropoxy)phenyl]-4-methylthiazole-5-carboxylic acid], for which the “absorption from the colonic region” value in data set [1] is “very poor”. The Cmax in “clinical” (120 mg) is around 3900 ng/mL; in “clinical” (240 mg), 10200 ng/mL. In data set [2], the “absorption lag-time after oral dosing” value is listed as “no absorption lag-time”. For the same compound, the “lowering uric acid levels” value with uric acid (30 mg twice daily compared with once daily 120 mg) is “as effective”. Also, in the data set on uric acid (IR, once a day, as little as 10 mg, healthy subjects), the “serum uric acid concentrations” value is “lowers concentrations of uric acid”. The “inhibition of uric acid levels” value with uric acid (in vivo febuxostat concentrations at or above 100 ng/mL (0.1 μg/mL)) is on record as at least 80%. For the same compound, in data set [3] (male, female, younger and elderly group of subjects), the “percent free fraction of febuxostat in plasma” value is 0.7±0.1%. Besides, the percent fu is 0.9±0.2% in data set [3] (setting [4]) and 1.2±0.2% in data set [3] (setting [5]). For the same compound, the figures for the “fu (free fraction in plasma)” value in data set [3] (setting [4]) and in data set [3] (setting [5]) were 0.9±0.2 and 1.2±0.2, respectively.
